Values after ≈ are worked out from the molar mass of the structure shown.
Experiments:
[1] = Oral bioavailability in rat; format: ADME, organism-based; conditions: in vivo
[2] = physchem; conditions: buffer, pH 7.4
[3] = target: Voltage-gated inwardly rectifying potassium channel KCNH2 (Homo sapiens, UniProt Q12809)
[4] = Inhibition of Akt Ser473 phosphorylation in human MDA-MB-468 cells after 2 hrs; format: cell-based; conditions: MDA-MB-468, 2 h
[5] = Plasma clearance in iv dosed rat; format: ADME, organism-based
[6] = Inhibition of Cytochrome P450; format: ADME
[7] = target: Phosphatidylinositol 4,5-bisphosphate 3-kinase catalytic subunit alpha isoform (Homo sapiens, UniProt P42336); assay: Inhibition of human recombinant PI3Kalpha expressed in baculovirus system using PI(4,5)P2 as substrate after 20 mins
[8] = target: Serine/threonine-protein kinase mTOR (Homo sapiens, UniProt P42345); assay: Inhibition of recombinant FLAG-tagged mTOR kinase expressed in HEK293 cells using Biotin-Ahx-Lys-Lys-Ala-Asn-Gln-Val-Phe-Leu-Gly-Phe-Thr-Tyr-Val-Ala-Pro-Ser-Val-Leu-Glu-Ser-Val-Lys-Glu-NH2 as substrate after 90 mins
[9] = physchem; conditions: aqueous, pH 7.4
[10] = Apparent permeability from basal to apical side of MDCK cells; format: ADME, cell-based, Canis lupus familiaris; conditions: dog
[11] = Apparent permeability from apical to basal side of MDCK cells; format: ADME, cell-based, Canis lupus familiaris; conditions: dog
[12] = Volume of distribution in iv dosed rat; format: ADME, organism-based; conditions: in vivo
[13] = target: Cytochrome P450 2C9 (Homo sapiens, UniProt P11712); assay: Inhibition of CYP2C9; format: ADME
[14] = Fraction unbound in rat plasma; format: ADME, cell-free

Voltage-gated inwardly rectifying potassium channel KCNH2, sequence (Q12809 whole entry): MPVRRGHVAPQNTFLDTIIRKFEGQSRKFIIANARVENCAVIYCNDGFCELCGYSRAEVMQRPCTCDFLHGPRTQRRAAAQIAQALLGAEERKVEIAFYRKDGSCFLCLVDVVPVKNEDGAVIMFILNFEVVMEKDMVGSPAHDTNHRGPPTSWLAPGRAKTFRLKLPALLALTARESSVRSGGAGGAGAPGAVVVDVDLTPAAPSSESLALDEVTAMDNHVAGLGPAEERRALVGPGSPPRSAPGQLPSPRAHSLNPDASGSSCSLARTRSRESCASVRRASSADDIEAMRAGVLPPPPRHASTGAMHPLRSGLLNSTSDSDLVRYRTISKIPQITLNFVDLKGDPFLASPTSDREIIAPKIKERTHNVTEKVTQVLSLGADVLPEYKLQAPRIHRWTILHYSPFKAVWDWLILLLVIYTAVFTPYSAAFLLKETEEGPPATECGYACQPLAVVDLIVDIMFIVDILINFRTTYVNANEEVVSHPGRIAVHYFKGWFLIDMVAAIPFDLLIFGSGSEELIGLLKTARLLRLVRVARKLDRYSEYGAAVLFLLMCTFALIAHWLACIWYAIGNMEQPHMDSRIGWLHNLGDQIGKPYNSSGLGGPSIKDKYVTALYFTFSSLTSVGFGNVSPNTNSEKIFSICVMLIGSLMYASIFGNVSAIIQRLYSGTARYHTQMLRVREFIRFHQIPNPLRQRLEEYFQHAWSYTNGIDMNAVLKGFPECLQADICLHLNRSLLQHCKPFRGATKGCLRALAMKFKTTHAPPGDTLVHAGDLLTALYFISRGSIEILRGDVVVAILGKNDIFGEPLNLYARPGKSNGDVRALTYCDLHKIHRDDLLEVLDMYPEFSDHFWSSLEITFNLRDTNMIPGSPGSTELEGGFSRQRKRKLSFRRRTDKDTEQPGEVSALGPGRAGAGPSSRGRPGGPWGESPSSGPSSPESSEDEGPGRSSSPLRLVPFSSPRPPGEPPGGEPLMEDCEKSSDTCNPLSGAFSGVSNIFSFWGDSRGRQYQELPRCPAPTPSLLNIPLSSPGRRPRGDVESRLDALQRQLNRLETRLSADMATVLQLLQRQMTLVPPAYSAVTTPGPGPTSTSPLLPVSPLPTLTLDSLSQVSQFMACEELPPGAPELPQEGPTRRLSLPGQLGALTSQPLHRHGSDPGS
Phosphatidylinositol 4,5-bisphosphate 3-kinase catalytic subunit alpha isoform, sequence (P42336 whole entry, canonical isoform): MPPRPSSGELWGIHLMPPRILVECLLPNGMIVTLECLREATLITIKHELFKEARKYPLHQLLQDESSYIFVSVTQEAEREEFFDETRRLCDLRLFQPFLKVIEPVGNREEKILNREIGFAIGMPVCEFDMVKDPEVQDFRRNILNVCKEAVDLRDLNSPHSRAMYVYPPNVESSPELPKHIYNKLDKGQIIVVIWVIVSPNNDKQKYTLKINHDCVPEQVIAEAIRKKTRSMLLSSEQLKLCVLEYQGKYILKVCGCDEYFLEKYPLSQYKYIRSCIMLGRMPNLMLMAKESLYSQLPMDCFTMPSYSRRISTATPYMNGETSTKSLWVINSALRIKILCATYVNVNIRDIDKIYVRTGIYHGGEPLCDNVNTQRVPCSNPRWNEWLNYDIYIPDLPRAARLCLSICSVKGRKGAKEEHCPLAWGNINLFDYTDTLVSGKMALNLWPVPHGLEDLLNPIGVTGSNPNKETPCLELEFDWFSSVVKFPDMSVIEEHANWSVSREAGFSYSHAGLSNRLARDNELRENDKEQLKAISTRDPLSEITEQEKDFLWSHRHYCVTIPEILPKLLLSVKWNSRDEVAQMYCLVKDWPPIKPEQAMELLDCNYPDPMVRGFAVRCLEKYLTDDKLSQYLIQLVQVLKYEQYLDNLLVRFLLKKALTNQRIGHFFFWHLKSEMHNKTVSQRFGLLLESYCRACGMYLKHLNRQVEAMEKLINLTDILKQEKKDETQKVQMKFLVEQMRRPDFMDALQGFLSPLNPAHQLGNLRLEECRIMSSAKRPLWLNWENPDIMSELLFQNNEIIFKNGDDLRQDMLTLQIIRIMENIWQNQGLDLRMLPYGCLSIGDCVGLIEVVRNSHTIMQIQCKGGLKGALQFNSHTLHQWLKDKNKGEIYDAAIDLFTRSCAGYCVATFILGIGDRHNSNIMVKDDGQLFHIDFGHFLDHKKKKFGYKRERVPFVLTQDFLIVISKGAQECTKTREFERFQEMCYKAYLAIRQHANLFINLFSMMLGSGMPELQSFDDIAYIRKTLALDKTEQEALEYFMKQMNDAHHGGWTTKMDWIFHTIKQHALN
Cytochrome P450 2C9, sequence (P11712 whole entry): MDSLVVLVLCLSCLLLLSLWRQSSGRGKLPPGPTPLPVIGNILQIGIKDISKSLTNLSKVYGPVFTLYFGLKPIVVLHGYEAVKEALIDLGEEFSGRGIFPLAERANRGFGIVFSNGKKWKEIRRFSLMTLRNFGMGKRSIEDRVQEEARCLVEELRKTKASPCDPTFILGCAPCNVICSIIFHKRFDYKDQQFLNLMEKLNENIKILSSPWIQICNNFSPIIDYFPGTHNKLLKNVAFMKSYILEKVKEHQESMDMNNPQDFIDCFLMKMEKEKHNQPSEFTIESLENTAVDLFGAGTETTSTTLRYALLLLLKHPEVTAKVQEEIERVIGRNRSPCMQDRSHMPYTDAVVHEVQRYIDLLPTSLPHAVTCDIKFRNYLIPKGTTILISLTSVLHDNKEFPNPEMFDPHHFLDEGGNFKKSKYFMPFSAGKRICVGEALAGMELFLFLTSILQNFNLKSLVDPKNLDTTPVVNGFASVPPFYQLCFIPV

| Compound | bioavailability [1] [%] | logD [2] | IC50 [3] [µM] | IC50 [4] [µM] | clearance [5] [mL/min/kg] | IC50 [6] [µM] | IC50 [7] [µM] | IC50 [8] [µM] | solubility [9] [µM] | Papp B→A [10] [×10⁻⁶ cm/s] | Papp A→B [11] [×10⁻⁶ cm/s] | Vd [12] [L/kg] | IC50 [13] [µM] | fraction unbound [14] |
| --- | --- | --- | --- | --- | --- | --- | --- | --- | --- | --- | --- | --- | --- | --- |
| O=S(=O)(Cc1cc(N2CCOCC2)nc(-c2ccccn2)n1)c1ccccc1 | 18 | 1.34 | > 32 | 9.2 | 32 | > 10 |  |  |  |  |  |  |  |  |
| CS(=O)(=O)Cc1cc(N2CCOCC2)nc(-c2cnc3[nH]ccc3c2)n1 | 43 |  | > 32 | 1.03 | 4 |  | 0.98 | 0.262 | 48 (≈ 17.9 µg/mL) |  |  |  |  |  |
| CS(=O)(=O)Cc1cc(N2CCOCC2)nc(-c2ccc3[nH]ccc3c2)n1 | 3 | 2.1 | > 32 | 5.7 | 4 |  |  |  | 6.2 (≈ 2.31 µg/mL) | 34 | 37 | 0.4 | 5 | 0.193 |
| O=S(=O)(CCc1cnccn1)Cc1cc(N2CCOCC2)nc(-c2ccccn2)n1 |  | < 0.5 |  | > 80 |  |  | > 90 | 3.16 |  |  |  |  |  |  |
| CC(C)S(=O)(=O)Cc1cc(N2CCOCC2)nc(-c2ccccn2)n1 |  |  |  | > 30 |  |  | 36.7 | 1.54 |  |  |  |  |  |  |
| O=S(=O)(Cc1cc(N2CCOCC2)nc(-c2ccccn2)n1)c1ccc(F)cc1 |  |  |  | 12.4 |  |  | 7.6 | 1.38 |  |  |  |  |  |  |
| CS(=O)(=O)Cc1cc(N2CCOCC2)nc(-c2ccccc2)n1 | 97 | 1.94 |  | > 30 | 11 | > 10 | > 1000 | 5 |  |  |  |  |  | 0.28 |
| Cn1ccc2cc(-c3nc(CS(C)(=O)=O)cc(N4CCOCC4)n3)ccc21 |  |  |  |  |  |  | > 24 | > 100 |  |  |  |  |  |  |
| CS(=O)(=O)Cc1cc(N2CCOCC2)nc(-c2cccc3[nH]ccc23)n1 |  | 1.7 | > 33 | 6.3 |  |  | 14.3 | 1.46 | 13 (≈ 4.84 µg/mL) |  |  |  |  | 0.301 |
| CS(=O)(=O)Cc1cc(N2CCOCC2)nc(-c2cccc(CO)c2)n1 | 41 |  |  | 3.4 | 25 |  | 2.05 | 0.601 |  |  |  |  |  | 0.447 |
| COCc1cccc(-c2nc(CS(C)(=O)=O)cc(N3CCOCC3)n2)c1 |  |  |  |  |  |  | > 300 | 22.5 |  |  |  |  |  |  |
| CS(=O)(=O)Cc1cc(N2CCOCC2)nc(-c2ccc3[nH]cnc3c2)n1 | 10 |  | > 32 | 7.2 | 37 |  | 1.06 | 0.285 |  |  |  |  |  |  |
| C[C@H]1COCCN1c1cc(CS(C)(=O)=O)nc(-c2ccc3[nH]ccc3c2)n1 | 33 | 2.4 |  | 1.88 | 36 |  | 22.9 |  | 192 (≈ 74.2 µg/mL) |  |  |  |  | 0.167 |
| C[C@@H]1COCCN1c1cc(CS(C)(=O)=O)nc(-c2ccc3[nH]ccc3c2)n1 |  |  |  | 3.1 |  |  | 5.3 |  |  |  |  |  |  |  |
| CS(=O)(=O)Cc1cc(N2CC3CCC(C2)O3)nc(-c2ccc3[nH]ccc3c2)n1 |  |  | > 32 | 1.9 |  |  | > 48 | 0.252 | 1.5 (≈ 0.598 µg/mL) |  |  |  |  | 0.22 |
| CS(=O)(=O)Cc1cc(N2CCOCC2)nc(-c2ccc(NS(C)(=O)=O)cc2)n1 | 38 | 0.85 |  | > 20 | 15 |  | > 100 |  | 11 (≈ 4.69 µg/mL) |  |  |  |  | > 0.66 |
| CS(=O)(=O)Cc1cc(N2CCOCC2)nc(NC(=O)c2ccno2)n1 |  | 1.74 |  | 5.1 |  |  | > 100 | 0.037 |  |  |  |  |  | 0.32 |
| CS(=O)(=O)Cc1cc(N2CCOCC2)nc(-c2ccc(NC(=O)Nc3ccc(F)cc3)cc2)n1 |  | > 3.2 |  |  |  |  |  |  |  |  |  |  |  |  |

Reference: ChEMBL document CHEMBL2029234, “Sulfonyl-morpholino-pyrimidines: SAR and development of a novel class of selective mTOR kinase inhibitor” (Bioorg Med Chem Lett, 2012)
